Experimental findings from ChEMBL document CHEMBL1201862, “PubChem BioAssay data set” (2004) are described below.

What all share (assay): inhibition of tumour cell growth, NCI panel, 48 h
Experiment [1] concerns COLO 205.
Experiment [2] has as its system HCC 2998.
The subject of experiment [3] is K562.
In experiment [4] the test system is KM12.
For experiment [5], the system named is MOLT-4.
The test system of experiment [6] is NCI-H460.
Experiment [7] deals with OVCAR-4.
In experiment [8] the test system is OVCAR-5.
Experiment [9] relates to PC-3.
In experiment [10] the test system is SF-268.
Experiment [11] relates to SK-MEL-2.
Experiment [12] has as its system SK-OV-3.
For experiment [13], the system named is SNB-19.
The test system of experiment [14] is SNB-75.
For experiment [15], the system named is SW-620.
Experiment [16] deals with U-251.
Experiment [17] concerns UACC-62.
Experiment [18] deals with HCT-15.
In experiment [19] the test system is HL-60.
Experiment [20] concerns A498.

Structures are written as SMILES.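 Method: 48-hour compound exposure of cells in 96-well plates, five concentrations, linear interpolation of endpoints. Abbreviation: GI50, concentration required for 50% inhibition of growth.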 Activity calls are given as the source filed them. No stated cut-off is given here; in the data, active = GI50 up to about 1.1 µM and inactive = higher. Non-standard residues stand in square brackets, D forms with d. Residues, ends and D or L forms follow the SMILES beside them. ξ: configuration not given here. Pen = CC(C)(S)[C@H](N)C(=O)O; ξL = CC(C)CC(N)C(=O)O

Consider `CN1C(=O)CC(=O)N1/C(=C/c1ccccc1)c1ccccc1`, for which the GI50 is 41 µM (inactive) in experiment [1]; > 100 µM (inactive) in [2]; 55.6 µM (inactive) in experiment [3]; > 100 µM (inactive) in experiment [4]; 30.3 µM (inactive) in [5]; 48 µM (inactive) in experiment [6]. Further, the GI50 is 49.8 µM (inactive) in experiment [7]; > 100 µM (inactive) in [8]; 32 µM (inactive) in experiment [9]; > 100 µM (inactive) in [10]; 38.5 µM (inactive) in experiment [11]; > 100 µM (inactive) in experiment [12]. For the same compound, the GI50 in [13] was > 100 µM (inactive); in [14], > 100 µM (inactive); in experiment [15], > 100 µM (inactive); in [16], > 100 µM (inactive); in experiment [17], 76.9 µM (inactive).

As to `Cc1ccc(C(=O)Cc2nc3c([nH]c2=O)c(C)nn3-c2ccccc2)c(C)c1`, the GI50 was > 10 µM (inactive) in experiment [1]; > 10 µM (inactive) in experiment [2]; more than 10 µM in experiment [18]; 9.04 µM (inactive) in experiment [19]; > 10 µM (inactive) in experiment [3]; > 10 µM (inactive) in experiment [4]. Moreover, the GI50 in [5] is > 10 µM (inactive); in experiment [7], 2.29 µM (inactive); in [9] it was > 10 µM (inactive); in experiment [10] it was > 10 µM (inactive); in experiment [12] it was > 10 µM (inactive); in [13], > 10 µM (inactive). The GI50 in experiment [14] was 1.01 µM (active); in experiment [15] it was 6.59 µM (inactive); in experiment [16] it was > 10 µM (inactive); in experiment [17], > 10 µM (inactive).

Regarding `CCOC(=O)C1=NN(c2ccc(Cl)cc2)C2=CC(C)=NN(C)C(=S)N21`, the GI50 in experiment [1] was > 100 µM (inactive); in experiment [2], > 100 µM (inactive); in [18], 67.5 µM; in experiment [19], > 100 µM (inactive); in [3], > 100 µM (inactive); in [4] it was > 100 µM (inactive). The GI50 is > 100 µM (inactive) in experiment [5]; > 100 µM (inactive) in experiment [6]; 37.6 µM (inactive) in experiment [7]; > 100 µM (inactive) in experiment [8]; > 100 µM (inactive) in experiment [9]; 45.2 µM (inactive) in experiment [10]. The GI50 in experiment [11] is > 10 µM (inactive); in experiment [12] it was 29.9 µM (inactive); in experiment [13], 41.5 µM (inactive); in [14], 26.8 µM (inactive); in experiment [15], 94.6 µM (inactive); in experiment [16], 25.9 µM (inactive). For the same compound, the GI50 in [17] was 40.6 µM (inactive).

As for `CC(=C(c1ccccc1)c1ccccc1)N1C(=O)CC(=O)N1C`, the GI50 in [1] was > 100 µM (inactive); in experiment [2] it was 47 µM (inactive); in experiment [3], 55.5 µM (inactive); in experiment [4], 50.4 µM (inactive); in [5], 38.4 µM (inactive); in experiment [6] it was 29.2 µM (inactive). In addition, the GI50 in experiment [7] is 32.1 µM (inactive); in [8] it was 53.2 µM (inactive); in [9], 21.9 µM (inactive); in experiment [10] it was 25.5 µM (inactive); in experiment [11], 16.7 µM (inactive); in experiment [12], > 100 µM (inactive). Further, the GI50 in experiment [13] is 81.7 µM (inactive); in experiment [14], 67.6 µM (inactive); in experiment [15], > 100 µM (inactive); in experiment [16] it was 61.4 µM (inactive); in experiment [17], 26 µM (inactive).

As to `CCCCCCSc1nc(N)nc2nc[nH]c12`, the GI50 in experiment [20] is 26.9 µM (inactive); in experiment [1], 38.9 µM (inactive); in [2], > 55.5 µM (inactive); in experiment [18], 35.4 µM; in experiment [19], 19.6 µM (inactive); in experiment [3], 32 µM (inactive). Also, the GI50 is 55.6 µM (inactive) in [4]; > 55.2 µM (inactive) in experiment [5]; 39.3 µM (inactive) in experiment [6]; 52.7 µM (inactive) in experiment [7]; 41.2 µM (inactive) in experiment [8]; 46.7 µM (inactive) in [10]. Moreover, the GI50 in experiment [11] was 18.4 µM (inactive); in [12], 28.8 µM (inactive); in [13] it was 39.4 µM (inactive); in experiment [14] it was 17 µM (inactive); in [15], 56.2 µM (inactive); in experiment [16] it was 35.4 µM (inactive). The GI50 in [17] was 37 µM (inactive).

Consider `COc1ccc2c(c1)c1c(n2CCN(C)C)-c2ccccc2CC1`, for which the GI50 was 12.5 µM (inactive) in experiment [1]; 18.2 µM (inactive) in [2]; 13.7 µM in [18]; 11.5 µM (inactive) in experiment [3]; 14.4 µM (inactive) in experiment [4]; 13.2 µM (inactive) in experiment [5]. The GI50 in [6] was 16.7 µM (inactive); in experiment [7] it was 16.9 µM (inactive); in experiment [8], 18.2 µM (inactive); in experiment [9], 12.6 µM (inactive); in [10], 18.1 µM (inactive); in experiment [11] it was 16.1 µM (inactive). Moreover, the GI50 in [12] was 20.2 µM (inactive); in experiment [13], 15.7 µM (inactive); in experiment [14], 13.7 µM (inactive); in experiment [15], 16.8 µM (inactive); in experiment [16] it was 13.1 µM (inactive); in [17], 14.5 µM (inactive).

Consider `CCOC(=O)C1(C(F)(F)F)N=C(CC)OC(N2CCOCC2)=N1` (stereo not given), for which the GI50 was > 100 µM (inactive) in [1]; > 100 µM (inactive) in [2]; more than 100 µM in experiment [18]; > 100 µM (inactive) in experiment [19]; > 100 µM (inactive) in [3]; > 100 µM (inactive) in experiment [4]. Further, the GI50 in experiment [5], in experiment [6], in experiment [7], in experiment [8], in experiment [9] and in experiment [10] was > 100 µM (inactive) in each case. The GI50 in [11], in experiment [12], in experiment [13], in [14], in experiment [15] and in experiment [16] was > 100 µM (inactive) each time. In [17], the GI50 is 54.5 µM (inactive).

For `CC1(C)CN=C(Nc2ccc(F)cc2)S1`, the GI50 in [1] is > 100 µM (inactive); in [2] it was > 100 µM (inactive); in [18], more than 100 µM; in experiment [19], > 100 µM (inactive); in [3], > 100 µM (inactive); in [4], > 100 µM (inactive). In addition, the GI50 in experiment [5], in experiment [7], in experiment [8], in experiment [9], in experiment [10] and in experiment [11] was > 100 µM (inactive) throughout. The GI50 in experiment [12], in experiment [13], in [14], in experiment [15], in experiment [16] and in [17] was > 100 µM (inactive) in each case.

For `Cc1cc(=O)n2nc(CCl)sc2n1`, the GI50 was 18.7 µM (inactive) in experiment [1]; 16 µM (inactive) in experiment [2]; 13.6 µM in experiment [18]; 17.3 µM (inactive) in experiment [19]; 17.8 µM (inactive) in experiment [3]; 12.1 µM (inactive) in experiment [4]. The GI50 in [5] is 11.8 µM (inactive); in experiment [6], 11.4 µM (inactive); in experiment [7], 17.8 µM (inactive); in [8] it was 15 µM (inactive); in [9], 13.3 µM (inactive); in experiment [10] it was 15.8 µM (inactive). The GI50 in [11] is 10.5 µM (inactive); in experiment [12] it was 15.5 µM (inactive); in experiment [13], 15.8 µM (inactive); in [14], 10.8 µM (inactive); in experiment [15] it was 15.8 µM (inactive); in experiment [16], 5.13 µM (inactive). In addition, the GI50 in experiment [17] is 14.4 µM (inactive).

With `CC12CCC(=O)[C@@]1(C)CCCC2O` (stereo not given in full), the GI50 in experiment [1] was > 100 µM (inactive); in experiment [2], > 100 µM (inactive); in experiment [18], more than 100 µM; in experiment [19], > 100 µM (inactive); in experiment [3], > 100 µM (inactive); in [4], > 100 µM (inactive). For the same compound, the GI50 in experiment [5], in experiment [6], in experiment [7], in experiment [8], in experiment [9] and in experiment [10] was > 100 µM (inactive) throughout. The GI50 in experiment [11], in experiment [12], in [13], in experiment [14], in experiment [15] and in experiment [16] was > 100 µM (inactive) throughout. In experiment [17], the GI50 was > 100 µM (inactive).

Consider `CSCC[C@H](NC(=O)C(CC(C)C)NC(=O)[C@H](Cc1c[nH]cn1)NC(=O)CNC(=O)[C@@H](NC(=O)[C@@H](C)NC(=O)[C@H](Cc1c[nH]c2ccccc12)NC(=O)[C@H](CCC(N)=O)NC(=O)[C@@H](N)CC(N)=O)C(C)(C)SC)C(N)=O` (stereo not given in full) (H-NQW[dA][Pen](Me)GH[ξL]M-NH2), for which the GI50 in experiment [20] was > 100 µM (inactive); in experiment [1] it was > 100 µM (inactive); in experiment [2] it was > 100 µM (inactive); in [18], more than 100 µM; in [19], > 100 µM (inactive); in [3], > 100 µM (inactive). Moreover, the GI50 in [4], in experiment [5], in experiment [6], in experiment [7], in [8] and in experiment [10] was > 100 µM (inactive) each time. In addition, the GI50 in experiment [11], in experiment [12], in [13], in experiment [14], in experiment [15] and in experiment [16] was > 100 µM (inactive) each time. Besides, in [17], the GI50 is > 100 µM (inactive).
